Results taken from US20240059700A1, “NOVEL DIACYLGLYCERIDE O-ACYLTRANSFERASE 2 INHIBITORS” (Merck Sharp & Dohme LLC, priority 2020, published 2024).

Molecular target: human DGAT2 (hDGAT2) (Homo sapiens (Human), UniProt Q96PD7)
Assay: DGAT2 Enzymatic Activity Assay
Format: biochemical
Conditions: membrane prep of Sf-9 insect cells expressing hDGAT2; 13C18-triolein product by LC/MS/MS
Protocol: Sf-9 insect cells were maintained in Grace's insect cell culture medium with 10% heated-inactivated fetal bovine serum, 1% Pluronic F-68 and 0.14 μg/ml Kanamycine sulfate at 27° C. in a shaker incubator. After infection with untagged baculovirus expressing human DGAT2 (hDGAT2) at multiplicity of infection (MOI) 3 for 48 hours, cells were harvested. Cell pellets were suspended in buffer containing 10 mM Tris-HCl pH 7.5, 1 mM EDTA, 250 mM sucrose and Complete Protease Inhibitor Cocktail (Sigma Aldrich), and sonicated on ice. Cell debris were removed by centrifugation at 2000×g for 15 minutes. Membrane fractions were isolated by ultracentrifugation (100,000×g), resuspended in the same buffer, and frozen (−80° C.) for later use. The protein concentration was determined with the Pierce™ BCA Protein Assay Kit (Thermo Fisher Scientific). Expression of protein levels was analyzed by immunoblotting with rabbit anti-DGAT2 antibody (Abcam, ab102831) and donkey anti-rabbit IgG H&L Alexa Fluor® 647 (Abcam, ab150075) followed by detection using Typhoon FLA9000 (GE Healthcare).
LC/MS/MS analyses were performed using Thermal Fisher's LX4-TSQ Vantage system. This system consists of an Agilent binary high-performance liquid chromatography (HPLC) pumps and a TSQ Vantage triple quadrupole MS/MS instrument. For each sample, 2 μL samples from the top organic layer of in-plate liquid-liquid extraction were injected onto a Thermo Betabasic C4 column (2.1 mm×20 mm, 5 μm particle size). The samples were then eluted using the following conditions; mobile phase: Isopropanol: acetonitrile/10 mM ammonium formate=50/35/15 (v/v/v), flow rate: 0.8 mL/min, temperature: 25° C. Data was acquired in positive mode using a heated electrospray ionization (HESI) interface. The operational parameters for the TSQ Vantage MS/MS instrument were a spray voltage of 3000 V, capillary temperature of 280° C., vaporizer temperature 400° C., sheath gas 45 arbitrary unit, Aux gas 10 arbitrary units, S-lens 165 and collision gas 1.0 mTorr. […] (SRM) chromatograms of ^13C18-triolein (Q1: 920.8>Q3:621.3) and internal standard ^13C21-triolein (Q1: 923.8>Q3:617.3) were collected for 33 sec. The peak area was integrated by Xcalibur Quan software. The ratio between the ^13C18 triolein generated in the reaction and spiked in internal standard ^13C21-triolein was used to generate percentage inhibition and IC50 values. Compound percentage inhibition was calculated by the following formula: Inhibition %=1−[(compound response−low control)/(high control−low control)]×100%. Potent compounds were titrated and IC50 were calculated by 4 parameter sigmoidal curve fitting formula.
DGAT2 activity was determined by measuring the amount of enzymatic product ^13C18-triolein (^13C-1,2,3-Tri(cis-9-octadecenoyl)glycerol) using the membrane prep mentioned above. The assay was carried out in ABgene 384-well assay plates in a final volume of 25 μL at rt. The assay mixture contained the following: assay buffer (100 mM Tris·Cl, pH 7.0, 20 mM MgCl2, 5% ethanol), 25 μM of diolein, 5 μM of ^13C oleoyl-CoA and 8 ng/μL of DGAT2 membrane.

human DGAT2 (hDGAT2), sequence (Q96PD7 whole entry): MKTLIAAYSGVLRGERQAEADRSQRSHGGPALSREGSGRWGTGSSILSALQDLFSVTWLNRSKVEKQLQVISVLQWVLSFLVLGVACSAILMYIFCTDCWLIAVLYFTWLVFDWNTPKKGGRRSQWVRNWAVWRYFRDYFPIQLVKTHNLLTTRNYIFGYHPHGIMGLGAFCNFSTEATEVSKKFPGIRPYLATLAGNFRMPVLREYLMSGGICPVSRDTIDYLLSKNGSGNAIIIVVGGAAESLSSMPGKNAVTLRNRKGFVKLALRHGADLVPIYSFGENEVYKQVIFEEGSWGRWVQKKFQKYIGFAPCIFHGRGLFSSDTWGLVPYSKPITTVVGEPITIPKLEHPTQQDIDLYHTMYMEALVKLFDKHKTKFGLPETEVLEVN

Compound | IC50 [nM]
C[C@]1(NC(=O)c2cc3c(cn2)c(-c2cccc(OC(F)F)c2)nn3-c2ccc(F)cc2)CCS(=O)(=O)C1 [Example 5, (S)-3-(3-(difluoromethoxy)phenyl)-1-(4-fluorophenyl)-N-(3-methyl-1,1-dioxidotetrahydrothiophen-3-yl)-1H-pyrazolo[4,3-c]pyridine-6-carboxamide] | 11
CC(C)n1nc(-c2cccc(OC(F)F)c2)c2ncc(C(=O)NC(C)(C)C(C)(C)O)cc21 [Example 43, 3-(3-(difluoromethoxy)phenyl)-N-(3-hydroxy-2,3-dimethylbutan-2-yl)-1-isopropyl-1H-pyrazolo[4,3-b]pyridine-6-carboxamide] | 148
CC(C)n1nc(-c2cccc(OC(F)F)c2)c2ncc(C(=O)NC3(CO)CCC3)cc21 [Example 49, 3-(3-(difluoromethoxy)phenyl)-N-(1-(hydroxymethyl)cyclobutyl)-1-isopropyl-1H-pyrazolo[4,3-b]pyridine-6-carboxamide] | 6.1
CCOc1cc(-c2nn(C(C)C)c3cc(C(=O)N[C@@]4(C)CCC[C@H]4O)cnc23)c(F)cn1 [Example 57, 3-(2-ethoxy-5-fluoropyridin-4-yl)-N-((1S,2R)-2-hydroxy-1-methylcyclopentyl)-1-isopropyl-1H-pyrazolo[4,3-b]pyridine-6-carboxamide] | 15
CC(C)n1nc(-c2cccc(OC(F)F)c2)c2ncc(C(=O)N[C@H]3CCC[C@H]3O)cc21 [Example 44, 3-(3-(difluoromethoxy)phenyl)-N-((1S,2R)-2-hydroxycydopentyl)-1-isopropyl-1H-pyrazolo[4,3-b]pyridine-6-carboxamide] | 64
CCn1nc(-c2cccc(OC(F)F)c2)c2ncc(C(=O)NC3(C)CS(=O)(=O)C3)cc21 [Example 27, 3-(3-(difluoromethoxy)phenyl)-1-ethyl-N-(3-methyl-1,1-dioxidothietan-3-yl)-1H-pyrazolo[4,3-b]pyridine-6-carboxamide] | 111
CC(O)C(C)NC(=O)c1cnc2c(-c3cccc(OC(F)F)c3)nn(C(C)C)c2c1 (stereo not shown) [Example 45a, 3-(3-(difluoromethoxy)phenyl)-N-(3-hydroxybutan-2-yl)-1-isopropyl-1H-pyrazolo[4,3-b]pyridme-6-carboxamide] | 23
C[C@]1(NC(=O)c2cc3c(cn2)c(-c2cncc(OC(F)F)c2)nn3-c2ccc(F)cc2)CCS(=O)(=O)C1 [Example 6, (S)-3-(5-(difluoromethoxy)pyridin-3-yl)-1-(4-fluorophenyl)-N-(3-methyl-1,1-dioxidotetrahydrothiophen-3-yl)-1H-pyrazolo[4,3-c]pyridine-6-carboxamide] | 89
CC(C)n1nc(-c2cccc(OC(F)F)c2)c2ncc(C(=O)N[C@]3(C#N)CCOC3)cc21 [Example 38, N-[(3S)-3-cyanotetrahydrofuran-3-yl]-3-[3-(difluoromethoxy)phenyl]-1-isopropyl-pyrazolo[4,3-b]pyridine-6-carboxamide] | 11
CN(C)[C@H]1COC[C@@H]1NC(=O)c1cnc2c(-c3cccc(OC(F)F)c3)cn(-c3ncc(F)cn3)c2c1 [Example 8, 3-(3-(difluoromethoxy)phenyl)-N-((3R,4R)-4-(dimethylamino)tetrahydrofuran-3-yl)-1-(5-fluoropyrimidin-2-yl)-1H-pyrrolo[3,2-b]pyridine-6-carboxamide] | 119
O=C(NCC1CC(F)(F)C1)c1cnc2c(-c3cccc(OC(F)F)c3)cn(-c3ncc(F)cn3)c2c1 [Example 19, N-((3,3-difluorocyclobutyl)methyl)-3-(3-(difluoromethoxy)phenyl)-1-(5-fluoropyrimidin-2-yl)-1H-pyrrolo[3,2-b]pyridine-6-carboxamide] | > 1000

Second part, the molecule after the results:

IC50 [nM] | Compound
210 | CC(C)n1nc(-c2cccc(C(C)(F)F)c2)c2ncc(C(=O)NC3(C)CS(=O)(=O)C3)cc21 [Example 93, 3-[3-(1,1-difluoroethyl)phenyl]-1-isopropyl-N-(3-methyl-1,1-dioxo-thietan-3-yl)pyrazolo[4,3-b]pyridine-6-carboxamide]
0.9 | CC(C)n1nc(-c2cccc(OC3CC3)c2)c2ncc(C(=O)NC3(C)CS(=O)(=O)C3)cc21 [Example 97, 3-[3-(cyclopropoxy)phenyl]-1-isopropyl-N-(3-methyl-1,1-dioxo-thietan-3-yl)pyrazolo[4,3-b]pyridine-6-carboxamide]
208 | C[C@]1(NC(=O)c2cnc3c(-c4cccc(OC(F)F)c4)cn(C4CCOCC4)c3c2)CCS(=O)(=O)C1 [Example 81, (S)-3-(3-(difluoromethoxy)phenyl)-N-(3-methyl-1,1-dioxidotetrahydrothiophen-3-yl)-1-(tetrahydro-2H-pyran-4-yl)-1H-pyrrolo[3,2-b]pyridine-6-carboxamide]
> 1000 | CC(C)n1nc(-c2ccnc(N(C)C)c2)c2ncc(C(=O)NC3(C)CS(=O)(=O)C3)cc21 [Example 125, 3-(2-(dimethylamino)pyridin-4-yl)-1-isopropyl-N-(3-methyl-1,1-dioxidothietan-3-yl)-1H-pyrazolo[4,3-b]pyridine-6-carboxamide]
612 | C[C@]1(NC(=O)c2cc3c(cn2)c(-c2cccc(OC(F)F)c2)cn3C2CCOCC2)CCS(=O)(=O)C1 [Example 82, (S)-3-(3-(difluoromethoxy)phenyl)-N-(3-methyl-1,1-dioxidotetrahydrothiophen-3-yl)-1-(tetrahydro-2H-pyran-4-yl)-1H-pyrrolo[3,2-c]pyridine-6-carboxamide]
1 | CC(C)n1nc(-c2cc(OC(F)F)ccc2F)c2ncc(C(=O)NC3(C)CS(=O)(=O)C3)cc21 [Example 113, 3-(5-(difluoromethoxy)-2-fluorophenyl)-1-isopropyl-N-(3-methyl-1,1-dioxidothietan-3-yl)-1H-pyrazolo[4,3-b]pyridine-6-carboxamide]
875 | C[C@]1(NC(=O)c2cnc3c(-c4cncc(OC(F)F)c4)cn(C4CCOCC4)c3c2)CCS(=O)(=O)C1 [Example 80, (S)-3-(5-(difluoromethoxy)pyridin-3-yl)-N-(3-methyl-1,1-dioxidotetrahydrothiophen-3-yl)-1-(tetrahydro-2H-pyran-4-yl)-1H-pyrrolo[3,2-b]pyridine-6-carboxamide]
3.3 | CCOc1ccc(F)c(-c2nn(C(C)C)c3cc(C(=O)NC4(C)CS(=O)(=O)C4)cnc23)c1 [Example 115, 3-(5-ethoxy-2-fluorophenyl)-1-isopropyl-N-(3-methyl-1,1-dioxidothietan-3-yl)-1H-pyrazolo[4,3-b]pyridine-6-carboxamide]
620 | CC(=O)Nc1ccc(-c2nn(C(C)C)c3cc(C(=O)NC4(C)CS(=O)(=O)C4)cnc23)cc1O [Example 124, 3-(4-acetamido-3-hydroxyphenyl)-1-isopropyl-N-(3-methyl-1,1-dioxidothietan-3-yl)-1H-pyrazolo[4,3-b]pyridine-6-carboxamide]
11.5 | CC[C@H](C)n1nc(-c2cc(OC(F)F)ncc2F)c2ncc(C(=O)NC3(C)CCS(=O)(=O)CC3)cc21 [Example 116, (S)-1-(sec-butyl)-3-(2-(difluoromethoxy)-5-fluoropyridin-4-yl)-N-(4-methyl-1,1-dioxidotetrahydro-2H-thiopyran-4-yl)-1H-pyrazolo[4,3-b]pyridine-6-carboxamide]
139 | CC(C)n1nc(-c2ccnc(OC(F)F)c2)c2ncc(C(=O)NC3(C)CS(=O)(=O)C3)cc21 [Example 100, 3-[2-(difluoromethoxy)-4-pyridyl]-1-isopropyl-N-(3-methyl-1,1-dioxo-thietan-3-yl)pyrazolo[4,3-b]pyridine-6-carboxamide]
